Legend:
[1] = biological target: T1, AHR (Homo sapiens, UniProt P35869); test: In vitro assay 2: agonism in human cell line (transactivation assay, U87 cells, DRE firefly luciferase reporter); type: cell-based; parameters: host or cells: U87 glioblastoma cells, stably transfected with DRE firefly luciferase and renilla reporter constructs; conditions: no kynurenic acid, 20 hours, read-out: Assay 2: AHR-luc Hum Agonism IC50
T1 sequence (P35869 11-848): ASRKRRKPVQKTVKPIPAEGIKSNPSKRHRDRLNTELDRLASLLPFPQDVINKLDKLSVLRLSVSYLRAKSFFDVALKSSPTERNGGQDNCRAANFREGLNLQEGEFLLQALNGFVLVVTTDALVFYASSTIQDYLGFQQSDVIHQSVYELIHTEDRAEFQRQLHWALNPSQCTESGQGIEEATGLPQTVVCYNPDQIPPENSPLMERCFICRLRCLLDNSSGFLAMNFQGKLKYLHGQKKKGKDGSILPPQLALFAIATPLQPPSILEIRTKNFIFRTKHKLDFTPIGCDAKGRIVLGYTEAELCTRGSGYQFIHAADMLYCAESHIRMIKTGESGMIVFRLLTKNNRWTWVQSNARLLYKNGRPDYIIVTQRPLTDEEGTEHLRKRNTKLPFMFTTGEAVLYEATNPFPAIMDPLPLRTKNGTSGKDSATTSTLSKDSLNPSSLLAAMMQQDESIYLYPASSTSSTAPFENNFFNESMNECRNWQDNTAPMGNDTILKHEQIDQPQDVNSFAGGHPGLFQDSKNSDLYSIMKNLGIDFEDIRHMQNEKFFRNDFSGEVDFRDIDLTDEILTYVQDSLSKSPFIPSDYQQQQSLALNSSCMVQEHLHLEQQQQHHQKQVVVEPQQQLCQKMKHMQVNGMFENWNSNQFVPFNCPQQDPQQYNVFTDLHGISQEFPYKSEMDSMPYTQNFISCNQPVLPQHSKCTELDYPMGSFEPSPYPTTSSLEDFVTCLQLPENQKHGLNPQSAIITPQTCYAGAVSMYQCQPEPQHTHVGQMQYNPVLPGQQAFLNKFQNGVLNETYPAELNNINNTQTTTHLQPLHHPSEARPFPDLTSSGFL
Procedure, shortened: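 Agonist readout: DRE firefly luciferase, with constitutive renilla reporter, in stably transfected U87 cells expressing AHR endogenously. Normalization used positive control (300 uM kynurenic acid) and negative control.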

[2] = biological target: T1, AHR; test: In vitro assay 1: antagonism in human cell line (transactivation assay, U87 cells prestimulated with kynurenic acid, DRE firefly luciferase reporter); type: cell-based; parameters: host or cells: U87 glioblastoma cells, stably transfected with DRE firefly luciferase and renilla reporter constructs; conditions: 150 uM kynurenic acid, 20 hours, read-out: Assay 1: AHR-luc Hum Antagonism IC50
Procedure, shortened: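 Antagonism measured after kynurenic acid prestimulation in U87 cells that express AHR endogenously and stably harbor a firefly luciferase gene under DRE control plus a constitutive renilla construct. Positive and negative controls served for normalization.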

Row | Compound | IC50 [1] [µM] | IC50 [2] [µM]
1 | C[C@H](NC(=O)c1cc(-c2ccc(C(F)(F)F)nc2)nn(-c2cnsc2)c1=O)C(C)(C)O [Example 233, N-[(2S)-3-Hydroxy-3-methylbutan-2-yl]-3-oxo-2-(1,2-thiazol-4-yl)-6-[6-(trifluoromethyl)pyridin-3-yl]-2,3-dihydropyridazine-4-carboxamide] | 17.2 | 0.00823
2 | O=C(NC[C@H](O)CF)c1cc(-c2ccc(C(F)(F)F)cc2)nn(-c2cccnc2)c1=O [Example 255, N-[(2S)-3-Fluoro-2-hydroxypropyl]-3-oxo-2-(pyridin-3-yl)-6-[4-(trifluoromethyl)phenyl]-2,3-dihydropyridazine-4-carboxamide] | > 20 | 0.0258
3 | O=C(N[C@H]1CCCC(F)(F)[C@@H]1O)c1cc(-c2ccc(OC(F)(F)F)cc2)nn(-c2cccnc2)c1=O (single isomer, unassigned; enantiomer 2) [Example 142, N-[(trans)-3,3-Difluoro-2-hydroxycyclohexyl]-3-oxo-2-(pyridin-3-yl)-6-[4-(trifluoromethoxy)phenyl]-2,3-dihydropyridazine-4-carboxamide, Enantiomer 2] | > 20 | 0.00832
4 | O=C(N[C@@H]1CSC[C@@H]1O)c1cc(-c2ccc(C(F)(F)F)cc2)nn(-c2cccnc2)c1=O (relative stereo) [Example 290, N-cis-4-Hydroxytetra-hydrothiophen-3-yl-3-oxo-2-(pyridin-3-yl)-6-[4-(trifluoromethyl)phenyl]-2,3-dihydropyridazine-4-carboxamide] | > 20 | 0.00282
5 | O=C(NCC(O)C(F)(F)F)c1cc(-c2ccc(OC(F)(F)F)cc2)nn(-c2cccnc2)c1=O (centres unmarked) [Example 146, 3-Oxo-2-(pyridin-3-yl)-N-[3,3,3-trifluoro-2-hydroxypropyl]-6-[4-(trifluoromethoxy)phenyl]-2,3-dihydropyridazine-4-carboxamide] | > 20 | 0.0103
6 | O=C(N[C@H]1COC[C@H]1O)c1cc(-c2ccc(C(F)F)nc2)nn(-c2cccnc2)c1=O (relative stereo) [Example 182, 6-[6-(Difluoromethyl)pyridin-3-yl]-N-[(cis)-4-hydroxytetrahydrofuran-3-yl]-3-oxo-2-(pyridin-3-yl)-2,3-dihydropyridazine-4-carboxamide] | > 20 | 6.11
7 | O=C(N[C@H](CO)C(F)(F)F)c1cc(-c2ccc(C(F)F)cc2)nn(-c2cccnc2)c1=O [Example 127, 6-[4-(Difluoromethyl)phenyl]-3-oxo-2-(pyridin-3-yl)-N-[(2R)-1,1,1-trifluoro-3-hydroxypropan-2-yl]-2,3-dihydropyridazine-4-carboxamide] | > 20 | 0.00417
8 | C[C@H](NC(=O)c1cc(-c2ccc(C(F)(F)F)cc2)nn(-c2cnn(C(F)F)c2)c1=O)C(C)(C)O [Example 228, 2-[1-(Difluoromethyl)-1H-pyrazol-4-yl]-N-[(2S)-3-hydroxy-3-methylbutan-2-yl]-3-oxo-6-[4-(trifluoromethyl)phenyl]-2,3-dihydropyridazine-4-carboxamide] | > 20 | 0.0133
9 | O=C(N[C@H](CO)C1CC1)c1cc(-c2ccc(C(F)(F)F)cc2)nn(-c2cnsc2)c1=O [Example 207, N-[(1S)-1-Cyclopropyl-2-hydroxyethyl]-3-oxo-2-(1,2-thiazol-4-yl)-6-[4-(trifluoromethyl)phenyl]-2,3-dihydropyridazine-4-carboxamide] | > 20 | 0.00121
10 | O=C(NC[C@H](O)C(F)(F)F)c1cc(-c2ccc(CF)cc2)nn(-c2cccnc2)c1=O [Example 280, 6-[4-(Fluoromethyl)phenyl]-3-oxo-2-(pyridin-3-yl)-N-[(2S)-3,3,3-trifluoro-2-hydroxypropyl]-2,3-dihydropyridazine-4-carboxamide] | > 20 | 0.178

Second part, the molecule after the results:

Row | IC50 [1] [µM] | IC50 [2] [µM] | Compound
11 | > 20 | 0.152 | COC[C@H](CO)NC(=O)c1cc(-c2ccc(Cl)cc2)nn(-c2cccnc2)c1=O [Example 74, (+)-6-(4-Chlorophenyl)-N-[(2S)-1-hydroxy-3-methoxypropan-2-yl]-3-oxo-2-(pyridin-3-yl)-2,3-dihydropyridazine-4-carboxamide]
12 | > 20 | 0.0569 | COC(=O)[C@@H](CO)NC(=O)c1cc(-c2ccc(Cl)cc2)nn(-c2cnn(C)c2)c1=O [Example 267, Methyl N-{[6-(4-chlorophenyl)-2-(1-methyl-1H-pyrazol-4-yl)-3-oxo-2,3-dihydropyridazine-4-yl]carbonyl}-D-serinate]
13 | > 20 | 0.82 | C[C@H](NC(=O)c1cc(-c2ccc(CF)cc2)nn(-c2cccnc2)c1=O)C(C)(C)O [Example 288, 6-[4-(Fluoromethyl)phenyl]-N-[(2S)-3-hydroxy-3-methylbutan-2-yl]-3-oxo-2-(pyridin-3-yl)-2,3-dihydropyridazine-4-carboxamide]
14 | > 20 | 0.111 | COC(=O)[C@@H](CO)NC(=O)c1cc(-c2ccc(Cl)cc2)nn(-c2cccnc2)c1=O [Example 274, Methyl N-{[6-(4-chlorophenyl)-3-oxo-2-(pyridin-3-yl)-2,3-dihydropyridazine-4-yl]carbonyl}-D-serinate]
15 | > 20 | 0.023 | Cn1cc(-n2nc(-c3ccc(Cl)cc3)cc(C(=O)N[C@@H]3COC[C@@H]3O)c2=O)cn1 (racemic) [Example 43, 6-(4-Chlorophenyl)-N-[(cis)-4-hydroxytetrahydrofuran-3-yl]-2-(1-methyl-1H-pyrazol-4-yl)-3-oxo-2,3-dihydropyridazine-4-carboxamide]
16 | > 20 | 0.00364 | O=C(N[C@H]1CCCC[C@H]1O)c1cc(-c2ccc(Cl)cc2)nn(-c2cncc(F)c2)c1=O [Example 124, 6-(4-Chlorophenyl)-2-(5-fluoropyridin-3-yl)-N-[(1S,2R)-2-hydroxycyclohexyl]-3-oxo-2,3-dihydropyridazine-4-carboxamide]
17 | > 20 | 0.0199 | O=C(N[C@H](CO)C1CC1)c1cc(-c2ccc(C(F)F)cc2)nn(-c2cccnc2)c1=O [Example 150, N-[(1S)-1-Cyclopropyl-2-hydroxyethyl]-6-[4-(difluoromethyl)phenyl]-3-oxo-2-(pyridin-3-yl)-2,3-dihydropyridazine-4-carboxamide]
18 | > 20 | 0.0679 | C[C@@H](CO)NC(=O)c1cc(-c2ccc(Cl)cc2)nn(-c2cncnc2)c1=O [Example 120, 6-(4-Chlorophenyl)-N-[(2S)-1-hydroxypropan-2-yl]-3-oxo-2-(pyrimidin-5-yl)-2,3-dihydropyridazine-4-carboxamide]
19 | > 20 | 0.0057 | CC(C)(O)C(NC(=O)c1cc(-c2ccc(Cl)cc2)nn(-c2cccnc2)c1=O)C(F)(F)F (single isomer, unassigned; enantiomer 2) [Example 123, 6-(4-Chlorophenyl)-3-oxo-2-(pyridin-3-yl)-N-(1,1,1-trifluoro-3-hydroxy-3-methylbutan-2-yl)-2,3-dihydropyridazine-4-carboxamide, Enantiomer 2]
20 | > 20 | 0.0553 | C[C@@H](CO)NC(=O)c1cc(-c2ccc(C(F)(F)F)cn2)nn(-c2cccnc2)c1=O [Example 345, N-[(2S)-1-Hydroxypropan-2-yl]-3-oxo-2-(pyridin-3-yl)-6-[5-(trifluoromethyl)pyridin-2-yl]-2,3-dihydropyridazine-4-carboxamide]
21 | > 20 | 0.259 | C[C@@H](CO)NC(=O)c1cc(-c2ccc(C(F)F)nc2)nn(-c2cnn(C)c2)c1=O [Example 66, 6-[6-(Difluoromethyl)pyridin-3-yl]-N-[(2S)-1-hydroxypropan-2-yl]-2-(1-methyl-1H-pyrazol-4-yl)-3-oxo-2,3-dihydropyridazine-4-carboxamide]
22 | > 20 | 0.00504 | Cc1cc(-n2nc(-c3ccc(Cl)cc3)cc(C(=O)NC[C@H](O)C(F)(F)F)c2=O)cs1 [Example 225, 6-(4-Chlorophenyl)-2-(5-methyl-3-thienyl)-3-oxo-N-[(2S)-3,3,3-trifluoro-2-hydroxypropyl]-2,3-dihydropyridazine-4-carboxamide]
